What is called IC50 is the point on the concentration scale where inhibition reaches its midpoint.

This is an account of results in article PMC5116089, “Sulfheme formation during homocysteine S-oxygenation by catalase in cancers and neurodegenerative diseases” (Nature Communications, 2016).

What all share (experiment): H2O2 consumption in cell lysates as a function of NaSH concentration
Experiment [1] has as its system HCT-116 cells. The experiment is classed as biochemical, human. The settings on record: HCT-116 cell lysate; read-out: relative IC50 (rate of H2O2 consumption). How it is done:
(§1) CAT activity was measured on an Uvikon 941 spectrophotometer equipped with a temperature controlled water bath (±1 °C) by following the disappearance of H2O2 at 240 nm over 30–120 s at 25 °C. Catalase activity was calculated based on the rate of decomposition of hydrogen peroxide, which is proportional to the reduction of the absorbance at 240 nm. Experiments were carried out in a 3 ml quartz cuvette containing 11.7 mM H2O2 in 50 mM KPi, pH 7.4±1 mM DTPA and the reaction was initiated by adding 0.3–0.6 pmoles of CAT. The effect of biological thiols on the activity of CAT under physiological conditions was determined from a solution of CAT (30–60 nM) preincubated at 25 °C for at least 120 min as a function thiol concentration (0–40 mM for HCys and Cys, 0–100 mM for GSH) in 50 mM KPi, pH 7.4, 1 mM DTPA. Control experiments (biological thiols alone) were also performed in parallel. In each case, 10 μl of the reaction mixture (biological thiols±CAT) was added to the cuvette containing the H2O2 solution to initiate the reaction. Similarly, the effect of biological thiols on the activity of CAT under pathological conditions was determined from a solution of CAT (30–60 nM) containing a 2.124±0.386 molar excess of iron that was preincubated with various concentrations of thiols (0–1 mM) for at least 120 min at 25 °C in 50 mM KP at pH 7.4. The relative half inhibitory concentration (IC50) values were obtained by plotting the relative activity of CAT (A, in per cent) as a function of the concentration of thiol-compounds (RSH) and by fitting the data with the following four parameter logistic equation: A=Amin+(Amax−Amin)/(1+([RSH]/IC50)^n), where Amax is the maximal activity of CAT (constrained at 100%), Amin is the minimum activity achieved at saturating concentration of RSH and n is the Hillslope that characterizes the slope of the curve at its midpoint. The inactivation rate (kinact, min^−1) was extracted from the time course of the inactivation of CAT bioactivity using a fixed concentration of HCys. Accordingly, a solution of CAT (3.5–5 μM) was incubated with 2 mM L-HCys in 50 mM KPi, pH 7.4, 1 mM DTPA. Aliquots (10 μl) were taken at intervals (0–480 min), diluted 1:50 in 50 mM KPi, pH 7.4, 1 mM DTPA and assayed for CAT activity as described above. […] The effect of NaSH on the consumption of H2O2 in cell lysates was determined from a solution of cell lysates (0.5–3 mg ml^−1) incubated on ice with various concentrations of NaSH (0–200 μM). […]

The subject of experiment [2] is HCT-15 cells. The experiment is classed as biochemical, human. The settings on record: HCT-15 cell lysate; read-out: relative IC50 (rate of H2O2 consumption). How it is done:
as §1

In experiment [3] the test system is HT-29 Glc−/+ cells. The experiment is classed as biochemical, human. To be noted: HT-29 Glc−/+ cell lysate (control line); read-out: relative IC50 (rate of H2O2 consumption). How it is done: as §1
The subject of experiment [4] is MDST8 cells. The experiment is classed as biochemical, human. To be noted: MDST8 cell lysate; read-out: relative IC50 (rate of H2O2 consumption). How it is done: as §1
Experiment [5] concerns Hek 293T cells. The experiment is classed as biochemical. To be noted: read-out: relative IC50 (rate of H2O2 consumption). How it is done: (§2) CAT activity was measured on an Uvikon 941 spectrophotometer equipped with a temperature controlled water bath (±1 °C) by following the disappearance of H2O2 at 240 nm over 30–120 s at 25 °C. Catalase activity was calculated based on the rate of decomposition of hydrogen peroxide, which is proportional to the reduction of the absorbance at 240 nm. Experiments were carried out in a 3 ml quartz cuvette containing 11.7 mM H2O2 in 50 mM KPi, pH 7.4±1 mM DTPA and the reaction was initiated by adding 0.3–0.6 pmoles of CAT. The effect of biological thiols on the activity of CAT under physiological conditions was determined from a solution of CAT (30–60 nM) preincubated at 25 °C for at least 120 min as a function thiol concentration (0–40 mM for HCys and Cys, 0–100 mM for GSH) in 50 mM KPi, pH 7.4, 1 mM DTPA. Control experiments (biological thiols alone) were also performed in parallel. […] Similarly, the effect of biological thiols on the activity of CAT under pathological conditions was determined from a solution of CAT (30–60 nM) containing a 2.124±0.386 molar excess of iron that was preincubated with various concentrations of thiols (0–1 mM) for at least 120 min at 25 °C in 50 mM KP at pH 7.4. […] The effect of NaSH on the consumption of H2O2 in cell lysates was determined from a solution of cell lysates (0.5–3 mg ml^−1) incubated on ice with various concentrations of NaSH (0–200 μM). […]

In experiment [6] the test system is crypt and surface epithelial cells. The experiment is classed as biochemical, mice. To be noted: read-out: relative IC50 (rate of H2O2 consumption). How it is done: as §2

Read-outs that look alike come from different tables or passages of the source.

In the case of `[Na+].[SH-]` [NaSH], the IC50 in experiment [1] is 1.8 ± 1.5 µM; in experiment [2], 5.8 ± 1.8 µM; in experiment [3] it was 15 ± 5.3 µM; in experiment [4], 20.4 ± 4 µM; in experiment [5] (Hek 293T cells transfected with Htt), 4 ± 1.5 µM; in experiment [5] (Hek 293T cells transfected with pcDNA), 6.5 ± 3.6 µM. For the same compound, the values for the IC50 in experiment [6] (cells isolated from DSS-treated mice) and in experiment [6] (cells isolated from untreated mice) were 21.6 ± 6.2 µM and 25.2 ± 6.7 µM, respectively.
